Calls of active or inactive are those of the source.
What was measured:
[1] = cytotoxicity in KRAS-transformed pancreatic duct cells, primary screen, cell-based, fluorescence, HTS (AID 431); type: functional; conditions: Homo sapiens;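 further: cell line used: HPDE-C7K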
[2] = target: T1, RNA-binding protein pos-1 (Caenorhabditis elegans, UniProt G5EF15); experiment: inhibitors of POS-1/mex-3 RNA binding, dose response, biochemical, fluorescence polarization (AID 1964);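 further: purified POS-1 fused to maltose binding protein made in E. coli; potency of compounds blocking POS-1 binding to fluorescent RNA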
T1 sequence (G5EF15 whole entry): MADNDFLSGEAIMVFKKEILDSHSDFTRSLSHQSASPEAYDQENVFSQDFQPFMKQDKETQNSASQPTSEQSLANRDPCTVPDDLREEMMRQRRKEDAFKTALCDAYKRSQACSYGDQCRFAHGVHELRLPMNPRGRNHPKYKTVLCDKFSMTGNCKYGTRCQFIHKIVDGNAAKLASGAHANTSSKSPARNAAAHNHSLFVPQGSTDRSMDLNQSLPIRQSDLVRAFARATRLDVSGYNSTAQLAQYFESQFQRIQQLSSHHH

[3] = target: T2, Zinc finger protein mex-5 (Caenorhabditis elegans, UniProt Q9XUB2); experiment: MEX-5/TCR-2 RNA interaction inhibitors, dose response, biochemical, C. elegans, fluorescence polarization (AID 1960)
T2 sequence (Q9XUB2 whole entry): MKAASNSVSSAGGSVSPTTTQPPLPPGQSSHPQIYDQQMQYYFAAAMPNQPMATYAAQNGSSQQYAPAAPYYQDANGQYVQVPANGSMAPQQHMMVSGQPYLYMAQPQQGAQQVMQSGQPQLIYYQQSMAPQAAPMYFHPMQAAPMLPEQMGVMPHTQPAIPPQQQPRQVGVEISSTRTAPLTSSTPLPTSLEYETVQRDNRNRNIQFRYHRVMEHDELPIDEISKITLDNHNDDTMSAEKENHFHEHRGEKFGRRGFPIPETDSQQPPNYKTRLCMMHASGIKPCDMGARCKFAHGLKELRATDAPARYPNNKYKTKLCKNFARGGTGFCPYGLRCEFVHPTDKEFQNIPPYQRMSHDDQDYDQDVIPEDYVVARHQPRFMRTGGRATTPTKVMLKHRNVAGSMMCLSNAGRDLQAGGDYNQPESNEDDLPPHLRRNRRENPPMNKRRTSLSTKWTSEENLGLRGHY

[4] = target: Luciferin 4-monooxygenase (Photinus pyralis, UniProt P08659); experiment: Counter Screen for Luciferase-based Assay Positives. [Related pubchem assays: 620, 618, 411 ]
HT-1080 = experiment: cytotoxicity in HT1080 fibrosarcoma cells, cell-based, fluorescence readout (AID 620); type: functional; conditions: Homo sapiens
[5] = cytotoxicity in HPDE-C7 cells, cell-based, fluorescence, HTS (AID 430); type: functional; conditions: Homo sapiens
[6] = target: Sphingosine 1-phosphate receptor 1 (Homo sapiens, UniProt P21453); type: functional;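 further: Tango beta-arrestin reporter U2OS cells stimulated with S1P near its EC80; inhibitor potency meaning antagonism of receptor activation by the natural agonist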
BJ [7] = experiment: cytotoxicity toward Ras-transformed BJeLR fibroblasts, dose response, cell-based, alamar blue fluorescence, cherrypicked samples (AID 2631); type: functional; conditions: Homo sapiens;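 further: confirmatory dose-response assay in RAS-dependent BJ fibroblasts engineered with TERT, LT and ST, with cytotoxicity read by fluorescence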
Cytochrome P450 2D6 = Cytochrome P450 2D6 (Homo sapiens, UniProt P10635);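 further: CYP2D6 member of a cytochrome P450 panel assay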
[8] = target: T3, Sphingosine 1-phosphate receptor 4 (Homo sapiens, UniProt O95977); experiment: Fluorescence dose response cell-based high throughput screening assay for antagonists of the Sphingosine 1-Phosphate Receptor 4 (S1P4). [Related pubchem assays: 1524 (Confirmation in triplicates.), 1510 (Primary screen.)]; type: functional
T3 sequence (O95977 whole entry): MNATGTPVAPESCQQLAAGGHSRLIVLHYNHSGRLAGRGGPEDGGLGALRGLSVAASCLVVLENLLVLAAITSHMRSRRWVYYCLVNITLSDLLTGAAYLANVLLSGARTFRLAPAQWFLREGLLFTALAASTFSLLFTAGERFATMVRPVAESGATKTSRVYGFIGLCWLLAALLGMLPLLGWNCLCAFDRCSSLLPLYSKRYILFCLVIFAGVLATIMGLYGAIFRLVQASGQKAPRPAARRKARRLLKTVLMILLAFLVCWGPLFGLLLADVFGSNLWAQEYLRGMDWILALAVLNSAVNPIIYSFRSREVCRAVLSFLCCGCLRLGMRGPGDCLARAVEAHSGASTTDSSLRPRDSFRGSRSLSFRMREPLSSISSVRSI

Mucolipin-3 = target: T4, Mucolipin-3 (Homo sapiens, UniProt Q8TDD5); experiment: Fluorescence counterscreen assay for […] agonists: dose response cell-based high-throughput screening assay to identify agonists of the transient receptor potential channel ML3 (TRPML3). [Related pubchem assays: 1424, 1448 ]; type: functional
T4 sequence (Q8TDD5 whole entry): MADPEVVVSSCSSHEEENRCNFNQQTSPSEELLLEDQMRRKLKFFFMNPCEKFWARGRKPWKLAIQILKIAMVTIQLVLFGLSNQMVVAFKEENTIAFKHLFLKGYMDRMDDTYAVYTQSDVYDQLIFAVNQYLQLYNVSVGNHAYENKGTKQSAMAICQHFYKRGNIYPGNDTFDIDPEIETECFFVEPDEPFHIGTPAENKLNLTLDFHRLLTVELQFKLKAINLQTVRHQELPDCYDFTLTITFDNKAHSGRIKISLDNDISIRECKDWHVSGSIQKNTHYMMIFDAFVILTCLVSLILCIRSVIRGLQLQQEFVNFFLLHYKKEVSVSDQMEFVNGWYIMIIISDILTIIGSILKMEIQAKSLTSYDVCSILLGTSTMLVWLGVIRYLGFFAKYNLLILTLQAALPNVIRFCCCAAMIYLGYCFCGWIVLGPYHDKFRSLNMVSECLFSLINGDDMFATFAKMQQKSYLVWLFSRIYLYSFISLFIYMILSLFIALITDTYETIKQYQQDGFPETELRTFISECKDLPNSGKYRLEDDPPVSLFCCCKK

[9] = cytotoxicity toward DRD oncogenic fibroblasts, dose response, cell-based, non-viral oncogenic, luminescence (AID 1934); type: functional; conditions: Homo sapiens
BJ [10] = experiment: cytotoxicity toward BJ-TERT fibroblasts, dose response, cell-based, RAS-independent, luminescence (AID 1933); type: functional; conditions: Homo sapiens
BJ [11] = experiment: cells; type: functional, cell-based; conditions: Homo sapiens
Ion channel NompC = Ion channel NompC (Danio rerio, UniProt Q7T1G6); experiment: Dose response cell-based high-throughput screening assay for agonists of the transient receptor potential channel N1 (TRPN1). [Related pubchem assays (depositor defined):AID1424, AID1448]; type: functional
INS1 = experiment: beta cell apoptosis inhibitors, cytokine rescue, dose response, luminescence, retest (AID 449756); type: functional, cell-based; conditions: Rattus norvegicus;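 further: cell death triggered by IL-1 beta plus TNF-alpha plus IFN-gamma mixture; protective hits raise ATP signal compared with cytokine alone wells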
[12] = cytotoxicity in HEK-293T cells, dose response, cytotoxicity control for TCR NF-kB inhibitor project, luminescence, T-cell screen hits (AID 489026); type: functional, cell-based;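 further: cells exposed to compound about 14 hours before the viability readout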
BJ [13] = experiment: cytotoxicity toward BJ-TERT-LT-ST fibroblasts, dose response, cell-based, RAS-independent, luminescence (AID 1935); type: functional; conditions: Homo sapiens;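 further: BJ fibroblasts immortalized with TERT plus LT and ST oncogenes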
[14] = target: T3, Sphingosine 1-phosphate receptor 4; experiment: Late stage fluorescence dose response cell-based screening assay for antagonists of the Sphingosine 1-Phosphate Receptor 4 (S1P4). [Related pubchem assays: 1524 (Confirmation screen (S1P4 antagonists).), 1510 (Primary screen (S1P4 antagonists).), 1853 (Summary AID (S1P4 antagonists).), 1692 (Dose response screen (S1P4 antagonists).)]; type: functional
[15] = target: T5, Endoribonuclease toxin MazF (Escherichia coli K-12, UniProt P0AE70); experiment: MazF toxin RNase activators, dose response, biochemical, fluorescence, single-stranded RNA substrate, uHTS hits (AID 588481); type: functional
T5 sequence (P0AE70 whole entry): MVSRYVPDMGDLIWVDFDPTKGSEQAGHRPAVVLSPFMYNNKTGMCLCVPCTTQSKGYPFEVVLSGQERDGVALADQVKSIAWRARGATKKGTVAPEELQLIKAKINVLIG

Estrogen receptor = target: T6, Estrogen receptor (Homo sapiens, UniProt P03372);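 further: potency for inhibiting coactivator peptide recruitment to the receptor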
T6 sequence (P03372 whole entry): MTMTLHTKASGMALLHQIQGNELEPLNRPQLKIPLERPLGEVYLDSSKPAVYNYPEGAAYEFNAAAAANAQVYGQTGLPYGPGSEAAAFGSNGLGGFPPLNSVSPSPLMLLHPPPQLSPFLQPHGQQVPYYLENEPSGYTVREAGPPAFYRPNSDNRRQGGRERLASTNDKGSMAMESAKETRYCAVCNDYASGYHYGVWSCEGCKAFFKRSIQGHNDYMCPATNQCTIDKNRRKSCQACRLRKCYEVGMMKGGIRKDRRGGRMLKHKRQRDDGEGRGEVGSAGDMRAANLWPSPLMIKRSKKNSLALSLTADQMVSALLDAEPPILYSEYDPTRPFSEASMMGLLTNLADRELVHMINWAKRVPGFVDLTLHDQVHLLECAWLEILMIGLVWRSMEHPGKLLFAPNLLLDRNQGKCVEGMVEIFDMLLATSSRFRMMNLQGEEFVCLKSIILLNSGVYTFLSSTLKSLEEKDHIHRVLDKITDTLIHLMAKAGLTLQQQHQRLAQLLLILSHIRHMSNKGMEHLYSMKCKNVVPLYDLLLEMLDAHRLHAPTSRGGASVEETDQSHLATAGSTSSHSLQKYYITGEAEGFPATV

[16] = target: T5, Endoribonuclease toxin MazF; experiment: fluorescent RNA oligo signal without MazF, dose response, counter-screen for MazEF activator project, biochemical, fluorescence, single-stranded RNase substrate (AID 588502); type: functional
[17] = HEp-2 cell cytotoxicity, dose response, cytotoxicity control for RSV inhibitor project, HTS (AID 2410); type: functional; conditions: human respiratory syncytial virus
[18] = HEK293T cell cytotoxicity, dose response, cytotoxicity control for HIV Vif inhibitor project, cherry-picks (AID 652208); type: functional, cell-based
[19] = target: T7, Mannose-6-phosphate isomerase (Homo sapiens, UniProt P34949); experiment: human PMI inhibitors, high substrate, primary screen, biochemical, fluorescence intensity, high mannose 6-phosphate (AID 1220)
T7 sequence (P34949 whole entry): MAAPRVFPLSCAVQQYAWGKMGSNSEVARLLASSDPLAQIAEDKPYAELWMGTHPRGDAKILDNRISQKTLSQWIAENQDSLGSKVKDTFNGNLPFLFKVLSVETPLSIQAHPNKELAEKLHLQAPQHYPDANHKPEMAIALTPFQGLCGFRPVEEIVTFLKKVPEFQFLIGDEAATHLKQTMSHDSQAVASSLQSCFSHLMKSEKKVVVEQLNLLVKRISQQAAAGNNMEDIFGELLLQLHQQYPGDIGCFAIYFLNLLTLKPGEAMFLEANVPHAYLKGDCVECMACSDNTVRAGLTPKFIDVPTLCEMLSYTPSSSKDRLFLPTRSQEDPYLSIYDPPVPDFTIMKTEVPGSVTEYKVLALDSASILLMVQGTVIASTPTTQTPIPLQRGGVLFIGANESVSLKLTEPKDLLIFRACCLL

Genome polyprotein = Genome polyprotein (dengue virus type 2, UniProt P29990); experiment: Dengue-2 NS5 methyltransferase inhibitors, primary screen, biochemical, confirmation dose response (AID 588689); type: functional
[20] = target: T7, Mannose-6-phosphate isomerase; experiment: inhibitors of human PMI, primary screen, biochemical, fluorescence intensity, coupled assay (AID 1209)

Sequence of Sphingosine 1-phosphate receptor 1 (P21453 whole entry): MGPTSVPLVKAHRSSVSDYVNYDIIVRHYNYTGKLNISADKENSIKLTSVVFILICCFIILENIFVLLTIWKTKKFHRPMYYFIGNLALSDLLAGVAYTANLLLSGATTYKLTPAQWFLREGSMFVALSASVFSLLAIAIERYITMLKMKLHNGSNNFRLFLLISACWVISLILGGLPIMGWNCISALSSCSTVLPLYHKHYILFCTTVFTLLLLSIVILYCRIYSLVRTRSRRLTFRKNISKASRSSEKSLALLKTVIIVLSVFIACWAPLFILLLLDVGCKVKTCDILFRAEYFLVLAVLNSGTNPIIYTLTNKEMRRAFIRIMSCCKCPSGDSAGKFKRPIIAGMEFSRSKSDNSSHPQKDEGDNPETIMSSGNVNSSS
Sequence of Cytochrome P450 2D6 (P10635 whole entry): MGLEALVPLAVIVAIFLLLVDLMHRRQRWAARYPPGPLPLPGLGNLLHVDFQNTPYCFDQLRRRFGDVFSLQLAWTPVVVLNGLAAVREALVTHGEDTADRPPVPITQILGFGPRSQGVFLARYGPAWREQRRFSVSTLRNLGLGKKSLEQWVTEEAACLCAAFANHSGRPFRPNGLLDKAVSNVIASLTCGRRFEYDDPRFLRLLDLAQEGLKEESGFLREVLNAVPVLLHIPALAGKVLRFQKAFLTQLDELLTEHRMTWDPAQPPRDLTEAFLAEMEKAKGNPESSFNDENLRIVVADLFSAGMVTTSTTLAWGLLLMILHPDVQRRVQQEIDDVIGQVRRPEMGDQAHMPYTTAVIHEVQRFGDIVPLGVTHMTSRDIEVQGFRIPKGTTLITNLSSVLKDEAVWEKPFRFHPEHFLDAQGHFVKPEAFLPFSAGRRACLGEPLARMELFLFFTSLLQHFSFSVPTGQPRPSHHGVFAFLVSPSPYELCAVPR
Sequence of Genome polyprotein (P29990 2492-3391 limits assumed): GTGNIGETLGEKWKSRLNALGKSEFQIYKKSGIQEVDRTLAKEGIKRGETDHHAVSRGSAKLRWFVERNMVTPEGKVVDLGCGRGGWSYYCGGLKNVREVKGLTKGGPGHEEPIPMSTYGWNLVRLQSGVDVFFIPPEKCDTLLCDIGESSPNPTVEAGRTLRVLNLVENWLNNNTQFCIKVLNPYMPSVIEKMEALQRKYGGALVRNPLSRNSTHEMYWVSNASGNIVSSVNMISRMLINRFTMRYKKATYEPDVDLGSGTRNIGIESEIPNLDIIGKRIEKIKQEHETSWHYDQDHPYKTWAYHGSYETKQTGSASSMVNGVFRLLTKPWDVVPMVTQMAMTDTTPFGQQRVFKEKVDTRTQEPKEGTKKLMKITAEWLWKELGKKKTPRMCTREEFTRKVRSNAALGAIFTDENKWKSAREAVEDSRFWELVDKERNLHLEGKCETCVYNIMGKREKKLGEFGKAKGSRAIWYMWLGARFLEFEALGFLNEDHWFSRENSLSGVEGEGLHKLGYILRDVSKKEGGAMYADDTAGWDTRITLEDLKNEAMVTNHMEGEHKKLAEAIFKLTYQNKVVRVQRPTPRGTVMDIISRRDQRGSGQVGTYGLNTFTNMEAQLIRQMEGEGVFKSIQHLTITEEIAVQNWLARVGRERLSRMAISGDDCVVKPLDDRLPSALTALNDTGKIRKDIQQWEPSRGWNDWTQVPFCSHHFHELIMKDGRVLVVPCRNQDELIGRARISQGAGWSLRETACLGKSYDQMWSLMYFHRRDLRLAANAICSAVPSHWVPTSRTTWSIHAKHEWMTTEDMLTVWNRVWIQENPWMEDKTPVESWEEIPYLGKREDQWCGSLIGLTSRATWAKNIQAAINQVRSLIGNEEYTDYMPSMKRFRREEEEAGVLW
Sequence of Ion channel NompC (Q7T1G6 whole entry): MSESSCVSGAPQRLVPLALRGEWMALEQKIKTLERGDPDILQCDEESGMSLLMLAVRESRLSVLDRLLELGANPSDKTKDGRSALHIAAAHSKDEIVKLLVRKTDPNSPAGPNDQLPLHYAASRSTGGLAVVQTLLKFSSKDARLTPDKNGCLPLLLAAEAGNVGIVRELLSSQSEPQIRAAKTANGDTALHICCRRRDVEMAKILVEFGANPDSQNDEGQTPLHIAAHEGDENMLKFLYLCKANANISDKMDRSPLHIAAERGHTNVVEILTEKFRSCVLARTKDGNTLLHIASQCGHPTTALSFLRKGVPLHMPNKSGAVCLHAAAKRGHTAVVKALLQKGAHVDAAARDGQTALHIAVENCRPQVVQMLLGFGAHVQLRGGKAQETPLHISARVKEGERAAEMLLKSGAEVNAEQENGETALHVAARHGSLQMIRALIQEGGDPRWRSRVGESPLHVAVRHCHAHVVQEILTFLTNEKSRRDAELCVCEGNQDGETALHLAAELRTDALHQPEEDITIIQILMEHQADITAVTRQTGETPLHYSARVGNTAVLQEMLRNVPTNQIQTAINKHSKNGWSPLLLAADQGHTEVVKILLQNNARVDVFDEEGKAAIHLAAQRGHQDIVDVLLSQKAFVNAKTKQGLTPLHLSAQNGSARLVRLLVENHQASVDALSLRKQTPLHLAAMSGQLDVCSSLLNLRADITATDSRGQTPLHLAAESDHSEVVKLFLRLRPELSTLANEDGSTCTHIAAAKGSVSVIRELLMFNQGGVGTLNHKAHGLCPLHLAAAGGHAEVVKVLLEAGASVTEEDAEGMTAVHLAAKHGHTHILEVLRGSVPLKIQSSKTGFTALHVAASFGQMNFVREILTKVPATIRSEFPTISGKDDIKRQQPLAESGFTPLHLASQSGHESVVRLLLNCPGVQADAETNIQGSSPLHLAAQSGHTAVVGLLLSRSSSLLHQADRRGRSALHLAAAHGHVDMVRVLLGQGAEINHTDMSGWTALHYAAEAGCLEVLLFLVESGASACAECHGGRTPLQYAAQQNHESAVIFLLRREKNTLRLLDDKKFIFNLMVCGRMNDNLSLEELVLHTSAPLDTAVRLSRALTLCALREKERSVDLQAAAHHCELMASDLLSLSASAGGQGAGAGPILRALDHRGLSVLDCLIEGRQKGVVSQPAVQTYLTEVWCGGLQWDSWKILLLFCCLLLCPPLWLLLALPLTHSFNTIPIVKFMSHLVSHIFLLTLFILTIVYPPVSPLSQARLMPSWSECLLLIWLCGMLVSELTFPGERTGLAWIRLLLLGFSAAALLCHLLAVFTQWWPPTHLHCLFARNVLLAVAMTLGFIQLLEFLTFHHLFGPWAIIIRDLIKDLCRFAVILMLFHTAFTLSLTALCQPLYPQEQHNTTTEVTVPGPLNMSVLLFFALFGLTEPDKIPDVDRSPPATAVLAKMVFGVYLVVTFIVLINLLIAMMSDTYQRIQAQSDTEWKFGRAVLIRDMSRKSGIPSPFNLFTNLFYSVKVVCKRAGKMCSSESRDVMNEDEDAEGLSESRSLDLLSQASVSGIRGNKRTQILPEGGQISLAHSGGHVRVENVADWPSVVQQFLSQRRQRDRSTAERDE
Sequence of Luciferin 4-monooxygenase (P08659 whole entry): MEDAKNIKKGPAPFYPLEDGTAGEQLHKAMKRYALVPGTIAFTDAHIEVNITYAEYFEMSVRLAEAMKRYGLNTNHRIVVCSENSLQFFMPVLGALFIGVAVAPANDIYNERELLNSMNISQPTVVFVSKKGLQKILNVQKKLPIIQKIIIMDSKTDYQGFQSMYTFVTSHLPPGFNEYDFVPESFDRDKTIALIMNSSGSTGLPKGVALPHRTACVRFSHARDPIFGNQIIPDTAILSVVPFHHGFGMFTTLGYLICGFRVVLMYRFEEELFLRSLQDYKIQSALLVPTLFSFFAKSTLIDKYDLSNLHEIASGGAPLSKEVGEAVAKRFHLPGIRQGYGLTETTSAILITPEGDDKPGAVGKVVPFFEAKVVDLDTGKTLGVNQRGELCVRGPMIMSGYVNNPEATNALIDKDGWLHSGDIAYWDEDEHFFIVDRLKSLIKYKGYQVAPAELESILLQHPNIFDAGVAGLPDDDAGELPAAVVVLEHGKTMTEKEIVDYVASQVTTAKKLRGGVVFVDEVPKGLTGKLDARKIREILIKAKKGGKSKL

## Cc1c(NC(=O)c2coc(=O)c(Br)c2)c(=O)n(-c2ccccc2)n1C
[1]
  EC50: 7.23 µM (active)
[2]
  EC50: 8.99 µM (active)
[3]
  EC50: 16.8 µM (active)
[4]
  EC50: 0.61 µM (active)
HT-1080
  EC50: 15 µM (active)
[5]
  EC50: 7.2 µM (active)

## C=C1C(=O)C=C2CN(C(=O)c3ccccc3)[C@@](Cc3ccc(F)cc3)(C(=O)OC)[C@@H]12
[6]
  IC50: 12 µM (not active)
BJ [7]
  EC50: < 0.104 µM (active)
Cytochrome P450 2D6
  AC50: 39.8 µM (inconclusive)
[8]
  IC50: 0.473 µM (active)
Mucolipin-3
  EC50: 1.12 µM (active)
[9]
  EC50: 0.662 µM (active)
BJ [10]
  EC50: 0.333 µM (active)
BJ [11]
  EC50: 8.08 µM (inconclusive)
Ion channel NompC
  EC50: > 1.11 µM (inactive)
INS1
  AC50: 1.58 µM (active)
[12]
  IC50: > 80 µM (inactive)
BJ [13]
  EC50: 0.554 µM (inconclusive)
[14]
  IC50: 3.7 µM (not active)

## O=C(Nc1ccc2oc(-c3ccc4ccccc4c3)nc2c1)c1cccs1
[15]
  EC50: > 99 µM (inactive)
Estrogen receptor
  IC50: 27.7 µM (active)
[16]
  EC50: > 99 µM (inactive)
[17]
  CC50: 18.6 µM (active)
[18]
  AC50: 31 µM (active)

## Cc1cc(C(=O)N/N=C/c2ccc(O)c(O)c2O)c(C)n1-c1ccccc1
[19]
  IC50: > 50 µM (not active)
Genome polyprotein
  IC50: 41.9 µM (active)
[20]
  IC50: > 50 µM (not active)

Source: ChEMBL document CHEMBL1201862, “PubChem BioAssay data set” (2004)
